Experimental data: the NIST ThermoML archive (doi:10.1021/je034177v)

Assays:
[1] = 101 kPa, Liquid; for speed of sound: Pulse-echo method; for mass density: Vibrating tube method
[2] = molar heat capacity at constant pressure; details: 101 kPa, Liquid, Small sample (50 mg) DSC
[3] = molar heat capacity at constant pressure; xn = mol fraction of the nth substance listed; details: 101 kPa, Liquid, Small sample (50 mg) DSC, x2 = 0
[4] = xn = mol fraction of the nth substance listed; details: 101 kPa, Liquid, x2 = 0; for speed of sound: Pulse-echo method; for mass density: Vibrating tube method

ClCCCCCCl [1,5-dichloropentane]
Details | mass density, [1] [kg/m3] | molar heat capacity at constant pressure, [2] [J/K/mol] | speed of sound, [1] [m/s]
278.15 K | 1115.28 | – | 1376.6
283.15 K | 1110.26 | 209.65 | 1358.9
288.15 K | 1105.2 | 210.73 | 1341
293.15 K | 1100.16 | 211.89 | 1323.2
298.15 K | 1095.11 | 212.94 | 1305.4
303.15 K | 1090.07 | 214.06 | 1287.9
308.15 K | 1085.02 | 215.21 | 1270.3
313.15 K | 1079.97 | 216.38 | 1253
318.15 K | 1074.95 | 217.56 | 1235.8
323.15 K | 1069.89 | 218.76 | 1218.7
328.15 K | 1064.93 | – | 1201.6

ClCCCCCCCl [1,6-dichlorohexane]
Details | mass density, [1] [kg/m3] | molar heat capacity at constant pressure, [2] [J/K/mol] | speed of sound, [1] [m/s]
278.15 K | 1082.7 | – | 1387.4
283.15 K | 1077.97 | 236.59 | 1370
288.15 K | 1073.22 | 237.9 | 1352.3
293.15 K | 1068.47 | 239.26 | 1334.8
298.15 K | 1063.74 | 240.6 | 1317.3
303.15 K | 1059 | 241.94 | 1299.9
308.15 K | 1054.25 | 243.37 | 1282.7
313.15 K | 1049.5 | 244.81 | 1265.7
318.15 K | 1044.78 | 246.28 | 1248.7
323.15 K | 1040.03 | 247.76 | 1231.8
328.15 K | 1035.37 | – | 1215.1

CCCCCCCCCCCC [dodecane]
Details | mass density, [1] [kg/m3] | molar heat capacity at constant pressure, [2] [J/K/mol] | speed of sound, [1] [m/s]
278.15 K | 759.56 | – | 1357
283.15 K | 755.96 | 368.47 | 1337.4
288.15 K | 752.36 | 370.48 | 1317.6
293.15 K | 748.74 | 372.74 | 1298
298.15 K | 745.14 | 375.04 | 1278.5
303.15 K | 741.52 | 377.43 | 1259.2
308.15 K | 737.88 | 380.02 | 1240
313.15 K | 734.24 | 382.73 | 1221
318.15 K | 730.6 | 385.48 | 1202.3
323.15 K | 726.95 | 388.29 | 1183.6
328.15 K | 723.29 | – | 1165.1

CCCCCCCCCCCC [dodecane] + ClCCCCCCCl
Details | mass density, [4] [kg/m3] | molar heat capacity at constant pressure, [3] [J/K/mol] | speed of sound, [4] [m/s]
278.15 K | 759.56 | – | 1357
283.15 K | 755.96 | 368.47 | 1337.4
288.15 K | 752.36 | 370.48 | 1317.6
293.15 K | 748.74 | 372.74 | 1298
298.15 K | 745.14 | 375.04 | 1278.5
303.15 K | 741.52 | 377.43 | 1259.2
308.15 K | 737.88 | 380.02 | 1240
313.15 K | 734.24 | 382.73 | 1221
318.15 K | 730.6 | 385.48 | 1202.3
323.15 K | 726.95 | 388.29 | 1183.6
328.15 K | 723.29 | – | 1165.1

CCCCCCCCCCCC [dodecane] + ClCCCCCCl
Details | mass density, [4] [kg/m3] | molar heat capacity at constant pressure, [3] [J/K/mol] | speed of sound, [4] [m/s]
278.15 K | 759.56 | – | 1357
283.15 K | 755.96 | 368.47 | 1337.4
288.15 K | 752.36 | 370.48 | 1317.6
293.15 K | 748.74 | 372.74 | 1298
298.15 K | 745.14 | 375.04 | 1278.5
303.15 K | 741.52 | 377.43 | 1259.2
308.15 K | 737.88 | 380.02 | 1240
313.15 K | 734.24 | 382.73 | 1221
318.15 K | 730.6 | 385.48 | 1202.3
323.15 K | 726.95 | 388.29 | 1183.6
328.15 K | 723.29 | – | 1165.1
